Key:
[1] = system: E. coli; assay: AATCC Test Method 147 qualitative antibacterial test (inhibition zone); type: cell-based, Escherichia coli (ATCC 2666)
Description: (§1) Fabric samples of #405 (pure cotton, Testfabrics, Inc., Middlesex, N.J.) and # 7402 (cotton/polyester 35/65, Testfabrics, Inc., Middlesex, N.J.) were finished in a manner similar to that set forth in Example I. The concentration of the finishing agent used was from about 5 to 15% in the finishing of the cotton fabrics and from about 5 to 20% in the finishing of the cotton/polyester (35/65) blend fabric because of the lower concentration of cellulose in the blend. The final biocidal property was imparted onto the finished fabrics by washing them with a diluted CLOROX® solution containing 0.25% chlorine after each washing circle. Qualitative antibacterial tests were conducted according to AATCC Test Method 147.
(§2) In the AATCC Test Method 147, two pieces of chlorinated fabrics with the size of 25 mm×50 mm were placed on a nutrient agar plate which had been inoculated by five streaks of a diluted bacteria solution using a 4 mm inoculating loop. The diluted bacteria solution was prepared by transferring 1.0 milliliter of 24 hour broth culture into 9.0 milliliter of sterile distilled water. The agar plate was incubated at 37° C. for 18-24 hours. The minimum width of inhibition zone along a streak on either side of the test specimen are measured. Table I sets forth the qualitative biocidal evaluations of the finished fabrics with different concentration of the agent Anti-1.

[2] = system: S. aureus; assay: as above; type: cell-based, Staphylococcu aureus (ATCC 5368)
Description: as §1, §2

[3] = system: E. coli; assay: AATCC Test Method 100 quantitative antibacterial test (bacterial reduction); type: cell-based, Escherichia coli (ATCC 2666); details: Anti-1 4%, contact time 60 min
Description: (§3) AATCC Test Method 100 was adopted in this study. According to this test method, four pieces of staked circular fabric swatches 4.8±0.1 (about one grams) were inoculated with 1.0±0.1 milliliter of inoculum in a 250 milliliter jar. The inoculum was a nutrient broth culture containing over 1.0×10^6 clone forming units (CFU) of organisms. After the swatches were inoculated, they were neutralized by 100 milliliter of a 0.02% sodium thiosulfate solution in the jar. The contact time was the time between inoculation and neutralization. The jar was vigorously shaken and the neutralized solution was diluted in serial. The dilutions, usually 100, 101, and 102, were plated on nutrient agar and incubated for 18-24 hours at 37° C. The number of bacteria recovered from the inoculated finished fabrics was counted and compared with that from untreated fabrics. Six log reduction means the total inactivation of bacteria, and one log reduction means that finished fabrics reduced bacteria counts from 106 CFU to 105 CFU.
(§4) Finished fabrics prepared from solutions containing 1%-6% of monomethylol-5,5-dimethylhydantoin following the protocol set forth in Example 1 with pickup rates below 1% have been tested.
(§5) Fabrics finished in accordance with the protocol set forth in Example II with Anti-2, i.e., 1,3-dimethylol-5,5-dimethylhydantoin, were also tested with AATCC test method 100, which was briefly described in Example IV. In the tests, a diluted CLOROX® solution containing 0.01 % active chlorine was used to chlorinate the finished fabrics.

[4] = system: S. aureus; assay: as above; type: cell-based, Staphylococcu aureus (ATCC 5368); details: for Bacterial Reduction Rates After fifteen washings S. aur. / Bacterial Reduction Rates After five Washings S. aur. / Bacterial Reduction Rates After ten Washings S. aur. / Bacterial Reduction Rates After twenty washings S. aur.: contact time 60 min
Description: as §3, §4, §5

[5] = system: E. coli; assay: AATCC Test Method 147 qualitative antibacterial test (inhibition zone); type: cell-based, Escherichia coli (ATCC 2666); remark: listed apart in the source
[6] = system: S. aureus; assay: as above; type: cell-based, Staphylococcu aureus (ATCC 5368); remark: listed apart in the source
[7] = #405 cotton, Anti-1 5%, add-on 1.2%
[8] = #405 cotton, Anti-1 10%, add-on 2.3%
[9] = #405 cotton, Anti-1 15%, add-on 3.1%
[10] = #7402 cotton/polyester 35/65, Anti-1 5%, add-on 0.8%
[11] = #7402 cotton/polyester 35/65, Anti-1 10%, add-on 1.4%
[12] = #7402 cotton/polyester 35/65, Anti-1 15%, add-on 1.6%
[13] = #7402 cotton/polyester 35/65, Anti-1 20%, add-on 2.0%
[14] = Cotton cloth #400, add-on 1.43%
[15] = Anti-1 1%, #7402, take up 0.14%
[16] = Anti-1 2%, #7402, take up 0.07%
[17] = Anti-1 4%, #7402, take up 0.45%
[18] = Anti-1 6%, #7402, take up 0.70%
[19] = Dacron/Cotton 65/35 #7402, add-on 1.19%
[20] = Terry cloth 100% Cotton, add-on 1.40%

## CC1(C)NC(=O)N(CO)C1=O [Anti-1, monomethylol-5,5-dimethylhydantoin]
[1]; [7]
  Biocidal Results After 20 Times Washing E. coli: >3 mm
  Biocidal Results After 50 Times Washing E. coli: >1 mm
[1]; [8]
  Biocidal Results After 20 Times Washing E. coli: >8 mm
  Biocidal Results After 50 Times Washing E. coli: >3 mm
[1]; [9]
  Biocidal Results After 20 Times Washing E. coli: kill all
  Biocidal Results After 50 Times Washing E. coli: >4 mm
[1]; [10]
  Biocidal Results After 20 Times Washing E. coli: >3 mm
  Biocidal Results After 50 Times Washing E. coli: >1 mm
[1]; [11]
  Biocidal Results After 20 Times Washing E. coli: >3 mm
  Biocidal Results After 50 Times Washing E. coli: >2 mm
[1]; [12]
  Biocidal Results After 20 Times Washing E. coli: kill all
  Biocidal Results After 50 Times Washing E. coli: >2 mm
[1]; [13]
  Biocidal Results After 20 Times Washing E. coli: kill all
  Biocidal Results After 50 Times Washing E. coli: >3 mm
[2]; [7]
  Biocidal Results After 20 Times Washing S. aureus: >1 mm
  Biocidal Results After 50 Times Washing S. aureus: ˜1 mm
[2]; [8]
  Biocidal Results After 20 Times Washing S. aureus: >3 mm
  Biocidal Results After 50 Times Washing S. aureus: >1 mm
[2]; [9]
  Biocidal Results After 20 Times Washing S. aureus: kill all
  Biocidal Results After 50 Times Washing S. aureus: >4 mm
[2]; [10]
  Biocidal Results After 20 Times Washing S. aureus: >1 mm
  Biocidal Results After 50 Times Washing S. aureus: ˜1 mm
[2]; [11]
  Biocidal Results After 20 Times Washing S. aureus: >1 mm
  Biocidal Results After 50 Times Washing S. aureus: ˜1 mm
[2]; [12]
  Biocidal Results After 20 Times Washing S. aureus: kill all
  Biocidal Results After 50 Times Washing S. aureus: >1 mm
[2]; [13]
  Biocidal Results After 20 Times Washing S. aureus: >4 mm
  Biocidal Results After 50 Times Washing S. aureus: >1 mm
[2]; [14]
  Biocidal results against S. aureus after being activated: >1.0 mm
[3]; Cl 0.01%, #400
  Bacterial Reduction Rates After fifteen washings E. coli: 6 log
  Bacterial Reduction Rates After five Washings E. coli: 6 log
  Bacterial Reduction Rates After ten Washings E. coli: 6 log
  Bacterial Reduction Rates After twenty washings E. coli: 6 log
[3]; Cl 0.01%, #7409
  Bacterial Reduction Rates After fifteen washings E. coli: 6 log
  Bacterial Reduction Rates After five Washings E. coli: 6 log
  Bacterial Reduction Rates After ten Washings E. coli: 6 log
  Bacterial Reduction Rates After twenty washings E. coli: 6 log
[3]; Cl 0.1%, #400
  Bacterial Reduction Rates After fifteen washings E. coli: 6 log
  Bacterial Reduction Rates After five Washings E. coli: 6 log
  Bacterial Reduction Rates After ten Washings E. coli: 6 log
  Bacterial Reduction Rates After twenty washings E. coli: 1 log
[3]; Cl 0.1%, #7409
  Bacterial Reduction Rates After fifteen washings E. coli: 6 log
  Bacterial Reduction Rates After five Washings E. coli: 6 log
  Bacterial Reduction Rates After ten Washings E. coli: 6 log
  Bacterial Reduction Rates After twenty washings E. coli: 6 log
[3]; Cl 0.25%, #400
  Bacterial Reduction Rates After fifteen washings E. coli: 1 log
  Bacterial Reduction Rates After five Washings E. coli: 6 log
  Bacterial Reduction Rates After ten Washings E. coli: 2 log
  Bacterial Reduction Rates After twenty washings E. coli: 1 log
[3]; Cl 0.25%, #7409
  Bacterial Reduction Rates After fifteen washings E. coli: 6 log
  Bacterial Reduction Rates After five Washings E. coli: 6 log
  Bacterial Reduction Rates After ten Washings E. coli: 6 log
  Bacterial Reduction Rates After twenty washings E. coli: 1 log
[4]; Anti-1 1%, #400, take up 0.65%
  Bacterial reduction rates on contact time 0 min S. aureus: No
  Bacterial reduction rates on contact time 30 min S. aureus: 1 log
  Bacterial reduction rates on contact time 60 min S. aureus: No
[4]; [15]
  Bacterial reduction rates on contact time 0 min S. aureus: No
  Bacterial reduction rates on contact time 30 min S. aureus: No
  Bacterial reduction rates on contact time 60 min S. aureus: No
[4]; Anti-1 2%, #400, take up 0.03%
  Bacterial reduction rates on contact time 0 min S. aureus: 1 log
  Bacterial reduction rates on contact time 30 min S. aureus: 6 log
  Bacterial reduction rates on contact time 60 min S. aureus: 6 log
[4]; [16]
  Bacterial reduction rates on contact time 0 min S. aureus: No
  Bacterial reduction rates on contact time 30 min S. aureus: 1 log
  Bacterial reduction rates on contact time 60 min S. aureus: 6 log
[4]; Anti-1 4%, #400, take up 0.47%
  Bacterial reduction rates on contact time 0 min S. aureus: 6 log
  Bacterial reduction rates on contact time 30 min S. aureus: 6 log
  Bacterial reduction rates on contact time 60 min S. aureus: 6 log
[4]; [17]
  Bacterial reduction rates on contact time 0 min S. aureus: 6 log
  Bacterial reduction rates on contact time 30 min S. aureus: 6 log
  Bacterial reduction rates on contact time 60 min S. aureus: 6 log
[4]; Anti-1 6%, #400, take up 0.70%
  Bacterial reduction rates on contact time 0 min S. aureus: 6 log
  Bacterial reduction rates on contact time 30 min S. aureus: 6 log
  Bacterial reduction rates on contact time 60 min S. aureus: 6 log
[4]; [18]
  Bacterial reduction rates on contact time 0 min S. aureus: 6 log
  Bacterial reduction rates on contact time 30 min S. aureus: 6 log
  Bacterial reduction rates on contact time 60 min S. aureus: 6 log
[4]; Cl 0.01%, #400, Anti-1 4%
  Bacterial Reduction Rates After fifteen washings S. aur.: 6 log
  Bacterial Reduction Rates After five Washings S. aur.: 6 log
  Bacterial Reduction Rates After ten Washings S. aur.: 6 log
  Bacterial Reduction Rates After twenty washings S. aur.: 6 log
[4]; Cl 0.01%, #7409, Anti-1 4%
  Bacterial Reduction Rates After fifteen washings S. aur.: 6 log
  Bacterial Reduction Rates After five Washings S. aur.: 6 log
  Bacterial Reduction Rates After ten Washings S. aur.: 6 log
  Bacterial Reduction Rates After twenty washings S. aur.: 6 log
[4]; Cl 0.1%, #400, Anti-1 4%
  Bacterial Reduction Rates After fifteen washings S. aur.: 6 log
  Bacterial Reduction Rates After five Washings S. aur.: 6 log
  Bacterial Reduction Rates After ten Washings S. aur.: 6 log
  Bacterial Reduction Rates After twenty washings S. aur.: 0 log
[4]; Cl 0.1%, #7409, Anti-1 4%
  Bacterial Reduction Rates After fifteen washings S. aur.: 6 log
  Bacterial Reduction Rates After five Washings S. aur.: 6 log
  Bacterial Reduction Rates After ten Washings S. aur.: 6 log
  Bacterial Reduction Rates After twenty washings S. aur.: 6 log
[4]; Cl 0.25%, #400, Anti-1 4%
  Bacterial Reduction Rates After fifteen washings S. aur.: 0 log
  Bacterial Reduction Rates After five Washings S. aur.: 6 log
  Bacterial Reduction Rates After ten Washings S. aur.: 0 log
  Bacterial Reduction Rates After twenty washings S. aur.: 0 log
[4]; Cl 0.25%, #7409, Anti-1 4%
  Bacterial Reduction Rates After fifteen washings S. aur.: 6 log
  Bacterial Reduction Rates After five Washings S. aur.: 6 log
  Bacterial Reduction Rates After ten Washings S. aur.: 6 log
  Bacterial Reduction Rates After twenty washings S. aur.: 1 log
[5]; [14]
  Biocidal results against E. coli after being activated: >2.0 mm
[5]; [19]
  Biocidal results against E. coli after being activated: >10 mm
[5]; Rayon, add-on 1.21%
  Biocidal results against E. coli after being activated: >1.0 mm
[5]; [20]
  Biocidal results against E. coli after being activated: >10 mm
[6]; [19]
  Biocidal results against S. aureus after being activated: >4.0 mm
[6]; Rayon, add-on 1.21%
  Biocidal results against S. aureus after being activated: >1.0 mm
[6]; [20]
  Biocidal results against S. aureus after being activated: kill all
